Assay results reported in publication PMC9877316, “Identification of a novel P2X7 antagonist using structure-based virtual screening” (Frontiers in Pharmacology, 2023).
Values after ≈ are worked out from the molar mass of the structure shown.

Tests used:
[1] = target: T1, human P2X4 (Homo sapiens, UniProt Q99571); test: Fluo-4 ATP-induced calcium influx assay; format: cell-based; settings: 10 µM compound; 1.2 µM ATP; 1321N1 cells
T1 construct: expressed in transfected cells
T1 sequence (Q99571 1-388): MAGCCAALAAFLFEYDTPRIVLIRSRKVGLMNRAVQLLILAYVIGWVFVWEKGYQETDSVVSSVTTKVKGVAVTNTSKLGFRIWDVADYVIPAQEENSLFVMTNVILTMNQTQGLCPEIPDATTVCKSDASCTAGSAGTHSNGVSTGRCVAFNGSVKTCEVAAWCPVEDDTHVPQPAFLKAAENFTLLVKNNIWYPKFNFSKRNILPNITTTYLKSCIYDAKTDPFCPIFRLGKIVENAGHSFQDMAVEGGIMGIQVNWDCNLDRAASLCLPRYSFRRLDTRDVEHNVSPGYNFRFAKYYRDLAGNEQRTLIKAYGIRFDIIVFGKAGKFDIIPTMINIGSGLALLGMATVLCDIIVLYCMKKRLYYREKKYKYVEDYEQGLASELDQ
Protocol: 1321N1 astrocytoma cells and HEK-293 cells were cultured (at 37°C, 5% CO2) in Dulbecco’s modified Eagle’s medium (DMEM/F-12 with Glutamax) supplemented with 10% foetal bovine serum (FBS) and 200 unit/ml of penicillin and streptomycin antibiotics (Fisher Scientific). […]
Cells were plated the day before assay into poly-lysine-coated 96-well plates at 40–65,000 cells/ml. […] A Fluoroskan Ascent FL plate reader (Fisher Scientific) equipped with a solution dispenser and an appropriate filter pair (excitation: 485 nm, emission: 538 nm) was used to record 5 s baseline followed by P2X4-mediated calcium influx measurements for 20–25 s after ATP stimulation (20 μL injection of solutions dissolved in modified Ringer’s buffer).
The antagonist activity of the 17 compounds (applied at 10 µM) was assayed initially on 1321N1 astrocytoma cells stably expressing human P2X4 receptors by measuring the ATP-induced (applied at 1.2 µM) increase in Fluo-4 fluorescence due to calcium influx via P2X4, using 2 µM BX430 as a positive control (Figure 1A). […] The ATP-induced rate of uptake of YoPro-1 dye was measured upon application of at 300 µM ATP, using .1 µM A740003 as a positive control (Figure 1B).

[2] = target: T2, rat P2X7-GFP (Rattus norvegicus, UniProt Q64663); test: Whole-cell patch clamp electrophysiology; format: cell-based
T2 construct: expressed in transfected cells; host or cells: HEK-293 cells stably expressing rat P2X7-GFP (patch clamp)
T2 sequence (Q64663 1-595): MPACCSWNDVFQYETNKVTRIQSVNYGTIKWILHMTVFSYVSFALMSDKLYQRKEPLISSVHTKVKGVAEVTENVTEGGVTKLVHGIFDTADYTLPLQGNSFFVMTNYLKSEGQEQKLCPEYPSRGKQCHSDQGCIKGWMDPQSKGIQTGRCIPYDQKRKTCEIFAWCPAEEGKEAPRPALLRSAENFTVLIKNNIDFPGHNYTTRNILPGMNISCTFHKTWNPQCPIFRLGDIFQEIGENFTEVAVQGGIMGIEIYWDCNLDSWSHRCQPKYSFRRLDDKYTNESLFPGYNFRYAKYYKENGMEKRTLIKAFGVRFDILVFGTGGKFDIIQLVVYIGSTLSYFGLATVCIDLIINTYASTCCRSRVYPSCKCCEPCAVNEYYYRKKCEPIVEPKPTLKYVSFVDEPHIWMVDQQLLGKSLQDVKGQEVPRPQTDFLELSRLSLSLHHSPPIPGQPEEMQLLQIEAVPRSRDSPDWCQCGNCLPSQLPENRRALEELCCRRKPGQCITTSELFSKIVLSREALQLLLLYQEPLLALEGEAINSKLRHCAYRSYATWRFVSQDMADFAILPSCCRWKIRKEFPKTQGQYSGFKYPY
Protocol: Whole-cell patch-clamp traces were recorded at room temperature using patch pipettes pulled from borosilicate glass (World Precision Instruments, Sarasota, FL, United States). Pipettes were filled with internal solution (IS) containing (in mM): 145 NaCl, 10 EGTA and 10 HEPES, with the pH adjusted to 7.3 with NaOH and had resistances of 3–5 MΩ. Cells were constantly perfused in a bath with ECS-LD. Currents were recorded at a holding membrane potential of −60 mV using an Axon Instruments Axopatch Multiclamp 700A amplifier and Digidata 1322A A/D interface (Molecular Devices, Sunnyvale, CA, United States). […] ATP applications were made at 90-s intervals. Solutions were applied to patch-clamped cells with the help of a rapid perfusion system (RSC-160, Biologic, Claix, France), allowing solution exchange times in the range […].
In order to confirm GP-25 as a competitive (orthosteric) antagonist, BzATP concentration-response curves (ranging between 300 μM and .03 µM) were constructed for rat P2X7-GFP in the YoPro-1 uptake assay in the presence of increasing concentrations of GP-25 (Figure 3A).

[3] = Solubility observations; format: physicochemical; settings: read-out: maximum concentration that could be applied (due to solubility issues)

antagonist activity at human P2X4 [1]: no activity
reduction in P2X7 activity at 25 µM ([2]; 25 µM compound, patch clamp): statistically significant reduction
inhibition of ATP-evoked currents ([2]; GP-25 pre-applied for 2 min, 300 µM ATP, HEK-293 cells): concentration-dependent inhibition
solubility [3]: 100 µM (≈ 48.4 µg/mL)
SMILES: COC(=O)C1=C(C)NC2=C(C(=O)c3ccccc32)C1c1cc(Br)ccc1OCC(=O)O (stereo not shown) [Compound 9, (4-bromo-2-(3-(methoxycarbonyl)-2-methyl-5-oxo-4,5-dihydro-1H-indeno(1,2-b)pyridine-4-yl)phenoxy)acetic acid]
